Experimental data as given in patent US20230160909A1, “NOVEL ION CONDUCTING CHANNEL FUSION SUBUNITS AND METHODS OF USE THEREOF” (UNIVERSITE DE BORDEAUX, priority 2020, published 2023).
Each block holds one compound with its values, some of them ahead of it.

Key:
Assay type in all cases: cell-based
mP2X4 = target: T1, mP2X4 (Mus musculus, UniProt Q9JJX6); experiment: mP2X4-NeonGreen-Calflux-nLuc BRET probe in HEK293T cells; conditions: FIG. 11
T1 construct: expressed in transfected cells; host or cells: HEK293T
T1 sequence (Q9JJX6 1-388): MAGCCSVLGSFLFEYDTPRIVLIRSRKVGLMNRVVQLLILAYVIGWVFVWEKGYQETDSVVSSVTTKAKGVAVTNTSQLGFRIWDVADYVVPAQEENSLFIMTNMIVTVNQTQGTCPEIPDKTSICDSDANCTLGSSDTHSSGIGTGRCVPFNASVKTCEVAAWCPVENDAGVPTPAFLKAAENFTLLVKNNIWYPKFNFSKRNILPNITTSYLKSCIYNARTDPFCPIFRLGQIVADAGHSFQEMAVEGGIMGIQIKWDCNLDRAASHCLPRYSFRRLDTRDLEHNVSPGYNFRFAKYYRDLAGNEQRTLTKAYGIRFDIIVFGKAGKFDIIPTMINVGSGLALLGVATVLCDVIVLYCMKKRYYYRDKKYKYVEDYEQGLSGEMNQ
Source text: (§1) Values were normalized to the maximal efficacy measured individually for each probe and represent the mean of three independent experiments.
(§2) We constructed human and murine P2X-NeonGreen-Calflux-nLuc probes wherein the DNA sequence encoding the seven human or mouse P2X subunits are individually fused in C-terminal to the calflux calcium sensor sandwiched in between the nanoluciferase and mNeonGreen (FIG. 11 left panel).

P2X2 = target: T2, P2X2 (Rattus norvegicus, UniProt P49653); experiment: rP2X2-nLuc-Calflux-YFP BRET probe in HEK293T cells; conditions: read-out: EC50 of activation of P2X2-NLuc-CalFlux-YFP probe
T2 construct: expressed in transfected cells; host or cells: HEK293T
T2 sequence (P49653 1-472): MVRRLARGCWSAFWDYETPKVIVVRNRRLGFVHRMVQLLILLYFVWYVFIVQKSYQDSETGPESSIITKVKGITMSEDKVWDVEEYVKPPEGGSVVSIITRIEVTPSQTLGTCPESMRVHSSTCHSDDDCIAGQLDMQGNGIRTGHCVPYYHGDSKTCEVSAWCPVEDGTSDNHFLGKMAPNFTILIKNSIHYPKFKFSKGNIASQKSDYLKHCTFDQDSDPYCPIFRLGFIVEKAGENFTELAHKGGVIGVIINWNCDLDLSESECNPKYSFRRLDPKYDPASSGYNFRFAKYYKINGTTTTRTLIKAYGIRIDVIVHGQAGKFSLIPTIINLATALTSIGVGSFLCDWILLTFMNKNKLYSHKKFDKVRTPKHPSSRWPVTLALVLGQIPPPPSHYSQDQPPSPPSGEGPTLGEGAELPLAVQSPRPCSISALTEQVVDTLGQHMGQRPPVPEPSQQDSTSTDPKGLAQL

hP2X2 = target: T3, hP2X2 (Homo sapiens, UniProt Q9UBL9); experiment: hP2X2-NeonGreen-Calflux-nLuc BRET probe in HEK293T cells; conditions: read-out: EC50 of activation of hP2X2 probe
T3 construct: expressed in transfected cells; host or cells: HEK293T
T3 sequence (Q9UBL9 1-471): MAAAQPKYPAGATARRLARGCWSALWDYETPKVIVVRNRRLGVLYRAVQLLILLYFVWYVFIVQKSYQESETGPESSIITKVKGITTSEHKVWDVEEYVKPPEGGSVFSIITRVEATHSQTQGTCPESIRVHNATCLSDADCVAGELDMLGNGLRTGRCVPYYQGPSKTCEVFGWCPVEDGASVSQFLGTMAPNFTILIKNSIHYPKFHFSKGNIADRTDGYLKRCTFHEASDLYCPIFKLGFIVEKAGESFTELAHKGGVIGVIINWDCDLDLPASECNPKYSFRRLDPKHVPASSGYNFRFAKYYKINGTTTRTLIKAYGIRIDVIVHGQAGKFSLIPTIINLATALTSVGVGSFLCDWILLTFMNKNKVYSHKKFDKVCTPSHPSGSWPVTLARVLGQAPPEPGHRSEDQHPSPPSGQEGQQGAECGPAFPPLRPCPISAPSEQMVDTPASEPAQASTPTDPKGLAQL
Source text: as §1, §2

TRPV1 ion channel = target: T4, TRPV1 ion channel (Homo sapiens, UniProt Q8NER1); experiment: mNeonGreen-Calflux-nLuc-hTRPV1 BRET biosensor in HEK293T cells; conditions: kinetic measurement, FIG. 8A
T4 construct: expressed in transfected cells; host or cells: HEK293T
T4 sequence (Q8NER1 whole entry): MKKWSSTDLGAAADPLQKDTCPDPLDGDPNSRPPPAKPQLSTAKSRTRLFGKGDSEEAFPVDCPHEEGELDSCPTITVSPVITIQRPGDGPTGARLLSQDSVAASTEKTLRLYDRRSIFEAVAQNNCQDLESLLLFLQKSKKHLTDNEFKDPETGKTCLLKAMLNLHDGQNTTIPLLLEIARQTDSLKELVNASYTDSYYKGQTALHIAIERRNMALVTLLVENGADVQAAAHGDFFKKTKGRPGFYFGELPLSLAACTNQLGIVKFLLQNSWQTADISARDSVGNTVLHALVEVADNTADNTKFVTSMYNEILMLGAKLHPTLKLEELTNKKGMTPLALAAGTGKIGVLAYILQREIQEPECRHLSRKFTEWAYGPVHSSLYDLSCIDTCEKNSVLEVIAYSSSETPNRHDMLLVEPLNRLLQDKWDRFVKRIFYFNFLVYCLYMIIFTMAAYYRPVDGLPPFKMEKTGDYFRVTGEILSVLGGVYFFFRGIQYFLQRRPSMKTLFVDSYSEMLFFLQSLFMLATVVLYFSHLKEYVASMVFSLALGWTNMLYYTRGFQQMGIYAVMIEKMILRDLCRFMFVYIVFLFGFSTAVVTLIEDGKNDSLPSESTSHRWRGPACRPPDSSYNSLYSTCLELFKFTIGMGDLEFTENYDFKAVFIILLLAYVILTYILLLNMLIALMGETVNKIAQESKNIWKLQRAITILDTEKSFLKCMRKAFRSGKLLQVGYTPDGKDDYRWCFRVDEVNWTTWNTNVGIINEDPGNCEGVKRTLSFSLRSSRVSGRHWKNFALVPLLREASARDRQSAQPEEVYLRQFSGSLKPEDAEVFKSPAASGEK

hP2X4 = target: T5, hP2X4 (Homo sapiens, UniProt Q99571); experiment: hP2X4-NeonGreen-Calflux-nLuc BRET probe in HEK293T cells; conditions: read-out: EC50 of activation of hP2X4 probe
T5 construct: expressed in transfected cells; host or cells: HEK293T
T5 sequence (Q99571 1-388): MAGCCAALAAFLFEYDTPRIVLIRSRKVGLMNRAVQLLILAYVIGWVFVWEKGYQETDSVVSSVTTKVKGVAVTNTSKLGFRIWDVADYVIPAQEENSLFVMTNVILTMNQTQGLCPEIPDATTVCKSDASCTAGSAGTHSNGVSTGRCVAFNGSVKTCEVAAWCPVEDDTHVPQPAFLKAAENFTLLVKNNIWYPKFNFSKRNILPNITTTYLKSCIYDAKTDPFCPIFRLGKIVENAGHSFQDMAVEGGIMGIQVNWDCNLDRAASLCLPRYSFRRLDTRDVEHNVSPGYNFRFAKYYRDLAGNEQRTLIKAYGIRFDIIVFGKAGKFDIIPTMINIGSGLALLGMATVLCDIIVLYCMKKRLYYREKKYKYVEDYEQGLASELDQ
Source text: as §1, §2

hP2X5 = target: T6, hP2X5 (Homo sapiens, UniProt Q93086); experiment: hP2X5-NeonGreen-Calflux-nLuc BRET probe in HEK293T cells; conditions: read-out: EC50 of activation of hP2X5 probe
T6 construct: expressed in transfected cells; host or cells: HEK293T
T6 sequence (Q93086 whole entry): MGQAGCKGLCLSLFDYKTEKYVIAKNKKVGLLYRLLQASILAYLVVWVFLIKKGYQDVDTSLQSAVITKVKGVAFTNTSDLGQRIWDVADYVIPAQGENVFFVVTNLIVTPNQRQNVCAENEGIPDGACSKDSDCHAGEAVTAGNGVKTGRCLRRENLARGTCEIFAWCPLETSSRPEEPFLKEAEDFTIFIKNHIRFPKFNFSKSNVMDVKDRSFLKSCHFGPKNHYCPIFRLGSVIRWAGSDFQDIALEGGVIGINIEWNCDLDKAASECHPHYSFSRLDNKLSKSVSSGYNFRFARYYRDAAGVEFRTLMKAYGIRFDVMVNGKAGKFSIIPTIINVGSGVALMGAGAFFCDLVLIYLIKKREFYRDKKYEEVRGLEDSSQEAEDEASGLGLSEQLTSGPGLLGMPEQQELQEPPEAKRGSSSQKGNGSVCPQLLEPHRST
Source text: as §1, §2

TRPV1 channel = target: T7, TRPV1 channel (Homo sapiens, UniProt Q8NER1); experiment: hTRPV1-nLuc-Calflux-YFP (or mNeonGreen) BRET probe in HEK293T cells; conditions: TRPV1-nLuc-Calflux-YFP/mNeonGreen probe
T7 construct: expressed in transfected cells; host or cells: HEK293T
T7 sequence (Q8NER1 whole entry): as the sequence (Q8NER1 whole entry) above

GABARho1 (GABA receptor) = target: T8, GABARho1 (GABA receptor) (Homo sapiens, UniProt P24046); experiment: YPetCI BRET sensor inserted in GABARho1 subunit; conditions: with or without untagged GABARho1 subunit, FIG. 13G
T8 construct: expressed in transfected cells; host or cells: HEK cells are stated only for the free probe
T8 sequence (P24046 22-479): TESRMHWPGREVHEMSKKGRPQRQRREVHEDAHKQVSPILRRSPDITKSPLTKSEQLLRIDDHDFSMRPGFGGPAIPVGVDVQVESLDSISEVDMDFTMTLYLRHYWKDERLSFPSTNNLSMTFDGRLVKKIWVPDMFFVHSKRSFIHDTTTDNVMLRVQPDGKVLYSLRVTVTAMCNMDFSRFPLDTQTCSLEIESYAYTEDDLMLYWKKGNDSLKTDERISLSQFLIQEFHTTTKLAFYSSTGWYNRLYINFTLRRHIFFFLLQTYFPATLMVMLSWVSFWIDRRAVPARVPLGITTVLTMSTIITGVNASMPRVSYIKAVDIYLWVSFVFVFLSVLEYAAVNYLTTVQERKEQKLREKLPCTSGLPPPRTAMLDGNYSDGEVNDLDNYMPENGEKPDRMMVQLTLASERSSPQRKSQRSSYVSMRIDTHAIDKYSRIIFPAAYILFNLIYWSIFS
Source text: FIG. 13: Biosensors allowing to track Cys-loop receptor family activity. Insertion of NG-CF-NL or NL-CF-YFP probes in the second intracellular loop of cationic receptors (A) allows to track activity of nicotinic (B) or serotonin receptors (C). A BRET probe called YPetCI was also developed to sense intracellular anionic flux (D and F). When inserted in the second intracellular loop of GABARho1 subunit this probe allows to track activity of the GABA receptor (G).
We also developed a BRET probe allowing to sense anionic flux by fusing the cDNA of a chloride sensitive variant of YFP (YFP Chlore or YPetCI) to the cDNA of nLuc (FIG. 13D). When expressed in HEK cells this probe is able to detect the anionic influx generated by VRAC channel opening following a hypotonic challenge (FIG. 13F). Based on this probe, we generated a biosensor allowing to measure the activity of the anionic GABA receptors. We inserted the cDNA of the YPetCI sensor in the second intracellular loop of the GABARho1 subunit (FIG. 13E).

hP2X7 = target: T9, hP2X7 (Homo sapiens, UniProt Q99572); experiment: hP2X7-NeonGreen-Calflux-nLuc BRET probe in HEK293T cells; conditions: read-out: EC50 of activation of hP2X7 probe
T9 construct: expressed in transfected cells; host or cells: HEK293T
T9 sequence (Q99572 1-595): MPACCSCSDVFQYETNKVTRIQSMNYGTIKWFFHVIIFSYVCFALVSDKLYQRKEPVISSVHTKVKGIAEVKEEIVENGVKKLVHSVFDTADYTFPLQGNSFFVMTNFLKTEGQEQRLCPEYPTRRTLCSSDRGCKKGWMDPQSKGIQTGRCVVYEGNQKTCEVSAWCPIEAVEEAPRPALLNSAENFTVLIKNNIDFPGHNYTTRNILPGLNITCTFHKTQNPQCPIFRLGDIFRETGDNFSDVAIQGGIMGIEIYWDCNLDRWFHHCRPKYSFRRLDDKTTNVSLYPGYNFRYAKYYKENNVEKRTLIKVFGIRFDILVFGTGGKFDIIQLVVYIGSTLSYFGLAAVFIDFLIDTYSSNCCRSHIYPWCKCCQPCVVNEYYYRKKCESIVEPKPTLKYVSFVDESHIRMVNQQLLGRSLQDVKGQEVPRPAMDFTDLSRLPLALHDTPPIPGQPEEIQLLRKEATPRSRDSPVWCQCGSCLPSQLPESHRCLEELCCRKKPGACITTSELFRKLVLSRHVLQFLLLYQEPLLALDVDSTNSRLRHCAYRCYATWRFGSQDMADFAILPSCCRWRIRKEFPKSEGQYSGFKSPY
Source text: as §1, §2

modulation of basal BRET signal (mP2X4): modulated in a dose-dependent manner
EC50 (P2X2): 888 ± 274 nM
EC50 (hP2X2): 1630 nM
change of basal BRET after exposure (TRPV1 ion channel): only faintly and transiently increased
EC50 (hP2X4): 490 nM
EC50 (hP2X5): 480 nM
change of BRET signal on stimulation (TRPV1 channel): does not respond
Compound: Nc1ncnc2c1ncn2[C@@H]1O[C@H](COP(=O)(O)OP(=O)(O)OP(=O)(O)O)[C@@H](O)[C@H]1O [ATP]

modulation of BRET signal (GABARho1 (GABA receptor)): modulated
Compound: NCCCC(=O)O [GABA, γ-aminobutyric acid]

EC50 (hP2X7): 49000 nM
Compound: BzATP
